Measurements from patent US20240100013A1, “SOTAGLIFLOZIN FOR IMPROVING LEFT ATRIAL FUNCTION” (CHARITÉ-UNIVERSITÄTSMEDIZIN BERLIN, priority 2021, published 2024).

What was measured:
[1] = test system: LA cardiomyocytes; assay: Spontaneous SR Ca2+ release events (SCaEs) of isolated LA cardiomyocytes; assay type: cell-based, rat; details: baseline conditions; antioxidative treatment; both HFpEF groups
From the text: Cardiomyocyte isolation. LA and LV cardiomyocytes were isolated using enzymatic digestion as previously described in detail. See Bode D, Guthof T, Pieske B M, Heinzel F R, Hohendanner F: “Isolation of Atrial Cardiomyocytes from a Rat Model of Metabolic Syndrome-related Heart Failure with Preserved Ejection Fraction,” J Vis Exp 2018(137).
Solutions and chemicals. Chemicals were obtained from Sigma-Aldrich (St. Louis, MO, USA) unless noted otherwise. The dual SGLT1/2 inhibitor sotagliflozin was provided by Lexicon Pharmaceuticals (The Woodlands, TX, USA). Fluorescent dyes Fura-2 AM, Rhod-2 AM, MitoTracker red, MitoTracker green, TMRE and H2-DCF were obtained from Thermo Fisher Scientific (Waltham, MA, USA). Tyrode solution contained (in mM): 130 NaCL, 4 KCl, 2 CaCl, 1 MgCl2, 10 Glucose, 10 HEPES; pH adjusted to 7.4 with NaOH. LA cardiomyocytes were plated on laminin-coated glass coverslips. 20 mM caffeine was added to Tyrode solution to induce sarcoplasmic reticulum (SR) Ca^2+ release and obtain a measure of SR Ca^2+ content. […]
Ca^2+ measurements and sarcomere shortening. Radiometric Ca^2+ measurements (excitation: 340 nm and 385 nm, emission: 510±10 nm; [Ca^2+] expressed as the ratio R=F340/F380) were performed either with a CytoCypher MultiCell System (CytoCypher BV, Netherlands; FIGS. 1C-F, 2D-G, 4A-F) or an Axiovert 200 microscope (Zeiss, Oberkochen, Germany) fluorescence imaging assembly (FIGS. 2A-C, 2H-J, 3A-E, 6E-I). […] Experiments were conducted at 37° C. and CaT were recorded at steady state (following electric stimulation).
CaT and sarcomere shortening of LA and LV cardiomyocytes were recorded for 10 s at 3 Hz stimulation. See FIGS. 2D-G, 4A-F. Electric stimulation was turned off and spontaneous SR Ca^2+ release events (See Voigt N, Heijman J, Wang Q, Chiang D Y, Li N, Karck M, Wehrens X H T, Nattel S, Dobrev D: “Cellular and molecular mechanisms of atrial arrhythmogenesis in patients with paroxysmal atrial fibrillation,” Circulation 2014, 129(2):145-156) (SCaEs) immediately recorded for a duration of 10 s (FIG. 1C-F). […]

[2] = test system: high-fat diet/streptozotocin-induced diabetic rats; details: via improved mitochondrial function; cited from earlier work

CC(=O)N[C@@H](CS)C(=O)O [acetylcysteine]
occurrence of SCaEs [1]: decreased

OC[C@H]1O[C@@H](c2ccc(Cl)c(Cc3ccc(O[C@H]4CCOC4)cc3)c2)[C@H](O)[C@@H](O)[C@@H]1O [empagliflozin]
diabetes related atrial fibrillation [2]: mitigate
